Patent publication US6737383B1, “Herbicidal oxadiazolidines” (priority 1999, dated 2004)

Assays:
cocklebur = test: Test B pre/postemergence cocklebur; format: in vivo, Xanthium strumarium
In short: (§1)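 Response is a visual 0-to-10 score relative to untreated plants, where 0 means no effect and 10 means complete control, taken twelve to sixteen days after application. Treatments went onto soil at planting and onto foliage of 1- to 4-leaf plants, using a surfactant-containing non-phytotoxic solvent.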

giant foxtail = test: Test B pre/postemergence giant foxtail; format: in vivo, Setaria faberii
In short: as §1

morningglory = test: Test B pre/postemergence morningglory; format: in vivo, Ipomoea hederacea
In short: as §1

bamyardgrass = test: Test B flood test barnyardgrass; format: in vivo, Echinochloa crus-galli; details: for Plant response rating, Barnyardgrass (0 to 10 scale, 0 is no effect, 10 is complete control) / Barnyardgrass plant response rating (0 to 10 scale, 0 is no effect, 10 is complete control): visual evaluation after twelve to sixteen days; for Barnyardgrass plant response rating (0 to 10 scale, 0 is no effect, 10 is complete control): under heading Pre-emergence
In short: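 Read-out is a visual response score from 0 (no effect) to 10 (complete control), assigned by comparison with untreated controls. Treatment was applied at the 2-leaf stage, and plants stayed in the greenhouse for twelve to sixteen days before scoring.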

[1] = Postemergence, Rate 250 g/ha, scale 0 to 10
[2] = Postemergence, Rate 500 g/ha, scale of 0 to 10 where 0 is no effect and 10 is complete control
[3] = Preemergence, Rate 62 g/ha, scale 0 to 10 (0 no effect, 10 complete control)
[4] = Preemergence, Rate 125 g/ha, scale of 0 to 10 where 0 is no effect and 10 is complete control
[5] = Preemergence, Rate 250 g/ha, scale 0 to 10, 0 is no effect, 10 is complete control
[6] = Rate 62 g/ha, Postemergence, scale of 0 to 10 where 0 is no effect and 10 is complete control
[7] = Rate 125 g/ha, Postemergence, scale 0 to 10, 0 is no effect, 10 is complete control
[8] = Preemergence, Rate 500 g/ha, scale 0 to 10, 0 is no effect, 10 is complete control
[9] = Postemergence block (flood test species), Rate 250 g/ha, scale 0 to 10
[10] = Postemergence section (flood test species), Rate 500 g/ha, scale of 0 to 10 where 0 is no effect and 10 is complete control
[11] = Rate 62 g/ha, Postemergence (flood test species), scale of 0 to 10 where 0 is no effect and 10 is complete control
[12] = Rate 125 g/ha, Postemergence section (flood test species), scale 0 to 10, 0 is no effect, 10 is complete control
[13] = Preemergence, Rate 62 g/ha, scale of 0 to 10 where 0 is no effect and 10 is complete control
[14] = Rate 62 g/ha, Postemergence, scale 0 to 10, 0 no effect, 10 complete control
[15] = Rate 62 g/ha, flood test species, Pre-emergence
[16] = Rate 125 g/ha, flood test species
[17] = Rate 250 g/ha, Pre-emergence (flood test species), scale 0 to 10, 0 is no effect, 10 is complete control
[18] = Rate 500 g/ha, Pre-emergence, flood test species, scale 0 to 10 (0 no effect, 10 complete control)

| SMILES | Cocklebur plant response rating (cocklebur; [1]) | Cocklebur plant response rating (cocklebur; [2]) | Plant response rating, Cocklebur (cocklebur; [4]) | Cocklebur plant response rating (cocklebur; [5]) | Cocklebur plant response rating (cocklebur; [7]) | Giant foxtail plant response rating (giant foxtail; [1]) | Giant foxtail plant response rating (giant foxtail; [2]) | Plant response rating, Giant foxtail (giant foxtail; [4]) | Giant foxtail plant response rating (giant foxtail; [5]) | Giant foxtail plant response rating (giant foxtail; [8]) | Giant foxtail plant response rating (giant foxtail; [7]) | Morningglory plant response rating (morningglory; [1]) | Morningglory plant response rating (morningglory; [2]) | Plant response rating, Morningglory (morningglory; [4]) | Morningglory plant response rating (morningglory; [5]) | Morningglory plant response rating (morningglory; [8]) | Morningglory plant response rating (morningglory; [7]) | Cocklebur plant response rating (cocklebur; [8]) | Plant response rating, Cocklebur (cocklebur; [13]) | Cocklebur plant response rating (cocklebur; [14]) | other results |
| --- | --- | --- | --- | --- | --- | --- | --- | --- | --- | --- | --- | --- | --- | --- | --- | --- | --- | --- | --- | --- | --- |
| CC(C)N(C(=O)n1oc(=O)n(CC#N)c1=O)c1ccc(F)cc1F [Compound 431] | 0 | 0 | 0 | 0 | 0 | 0 | 6 | 0 | 2 | 3 | 0 | 1 | 2 | 0 | 0 | 0 | 1 | – | – | – | Plant response rating, Cocklebur (cocklebur; [3]): 0; Cocklebur plant response rating (cocklebur; [6]): 0; Plant response rating, Giant foxtail (giant foxtail; [3]): 0; Giant foxtail plant response rating (giant foxtail; [6]): 0; Plant response rating, Morningglory (morningglory; [3]): 0; Barnyardgrass plant response rating (bamyardgrass; [9]): 0; Barnyardgrass plant response rating (bamyardgrass; [10]): 0; Barnyardgrass plant response rating (bamyardgrass; [11]): 0; Barnyardgrass plant response rating (bamyardgrass; [12]): 0 |
| CC(C)N(C(=O)n1oc(=O)n(CCC#N)c1=O)c1ccc(F)cc1F [Compound 433] | 0 | 0 | 0 | 2 | 0 | 6 | 8 | 10 | 10 | 10 | 4 | 4 | 7 | 0 | 2 | 3 | 2 | 3 | – | – | Plant response rating, Cocklebur (cocklebur; [3]): 0; Cocklebur plant response rating (cocklebur; [6]): 0; Plant response rating, Giant foxtail (giant foxtail; [3]): 10; Giant foxtail plant response rating (giant foxtail; [6]): 4; Plant response rating, Morningglory (morningglory; [3]): 0; Barnyardgrass plant response rating (bamyardgrass; [9]): 0; Barnyardgrass plant response rating (bamyardgrass; [10]): 0; Barnyardgrass plant response rating (bamyardgrass; [11]): 0; Barnyardgrass plant response rating (bamyardgrass; [12]): 0 |
| CC(C)N(C(=O)n1oc(=O)n(CCl)c1=O)c1ccc(F)cc1F [Compound 437] | 0 | 1 | 0 | 0 | 0 | 0 | 7 | 0 | 0 | 3 | 0 | 4 | 9 | 0 | 0 | 0 | 1 | 0 | 0 | 0 | Plant response rating, Giant foxtail (giant foxtail; [13]): 0; Giant foxtail plant response rating (giant foxtail; [14]): 0; Plant response rating, Morningglory (morningglory; [13]): 0; Morningglory plant response rating (morningglory; [14]): 0; Plant response rating, Barnyardgrass (0 to 10 scale, 0 is no effect, 10 is complete control) (bamyardgrass; [15]): 0; Barnyardgrass plant response rating (0 to 10 scale, 0 is no effect, 10 is complete control) (bamyardgrass; [16]): 0; Barnyardgrass plant response rating (bamyardgrass; [17]): 0; Barnyardgrass plant response rating (bamyardgrass; [18]): 0 |
| COC(C)n1c(=O)on(C(=O)N(c2ccc(F)cc2)C(C)C)c1=O (centres unmarked) [Compound 439] | 0 | 0 | 0 | 0 | 0 | 0 | 0 | 0 | 0 | 0 | 0 | 0 | 0 | 0 | 0 | 0 | 0 | 0 | 0 | 0 | Plant response rating, Giant foxtail (giant foxtail; [13]): 0; Giant foxtail plant response rating (giant foxtail; [14]): 0; Plant response rating, Morningglory (morningglory; [13]): 0; Morningglory plant response rating (morningglory; [14]): 0; Plant response rating, Barnyardgrass (0 to 10 scale, 0 is no effect, 10 is complete control) (bamyardgrass; [15]): 0; Barnyardgrass plant response rating (0 to 10 scale, 0 is no effect, 10 is complete control) (bamyardgrass; [16]): 0; Barnyardgrass plant response rating (bamyardgrass; [17]): 0; Barnyardgrass plant response rating (bamyardgrass; [18]): 0 |
| Cc1nc(C)c(C(C)n2c(=O)on(C(=O)N(c3ccc(F)cc3F)C(C)C)c2=O)s1 (centres unmarked) [Compound 443] | 0 | 0 | 0 | 0 | 0 | 0 | 0 | 4 | 10 | 10 | 0 | 4 | 4 | 0 | 0 | 0 | 3 | 0 | 0 | 0 | Plant response rating, Giant foxtail (giant foxtail; [13]): 3; Giant foxtail plant response rating (giant foxtail; [14]): 0; Plant response rating, Morningglory (morningglory; [13]): 0; Morningglory plant response rating (morningglory; [14]): 2; Plant response rating, Barnyardgrass (0 to 10 scale, 0 is no effect, 10 is complete control) (bamyardgrass; [15]): 0; Barnyardgrass plant response rating (0 to 10 scale, 0 is no effect, 10 is complete control) (bamyardgrass; [16]): 0; Barnyardgrass plant response rating (bamyardgrass; [17]): 0; Barnyardgrass plant response rating (bamyardgrass; [18]): 0 |
| CC(C)N(C(=O)n1oc(=O)n(C(C)C#N)c1=O)c1ccc(Cl)cc1 (centres unmarked) [Compound 451] | 0 | 0 | 0 | 0 | 0 | 3 | 7 | 0 | 4 | 7 | 0 | 1 | – | 0 | 0 | 0 | 1 | 0 | 0 | 0 | Plant response rating, Giant foxtail (giant foxtail; [13]): 0; Giant foxtail plant response rating (giant foxtail; [14]): 0; Plant response rating, Morningglory (morningglory; [13]): 0; Morningglory plant response rating (morningglory; [14]): 1; Plant response rating, Barnyardgrass (0 to 10 scale, 0 is no effect, 10 is complete control) (bamyardgrass; [15]): 0; Barnyardgrass plant response rating (0 to 10 scale, 0 is no effect, 10 is complete control) (bamyardgrass; [16]): 0; Barnyardgrass plant response rating (bamyardgrass; [17]): 0; Barnyardgrass plant response rating (bamyardgrass; [18]): 0 |
| CC(C)N(C(=O)n1oc(=O)n(C(C)CCl)c1=O)c1ccc(Cl)cc1 (centres unmarked) [Compound 456] | 0 | 2 | 0 | 0 | 0 | 3 | 8 | 10 | 10 | 10 | 2 | 5 | – | 0 | 3 | 3 | 3 | 0 | 0 | 0 | Plant response rating, Giant foxtail (giant foxtail; [13]): 5; Giant foxtail plant response rating (giant foxtail; [14]): 2; Plant response rating, Morningglory (morningglory; [13]): 0; Morningglory plant response rating (morningglory; [14]): 3; Plant response rating, Barnyardgrass (0 to 10 scale, 0 is no effect, 10 is complete control) (bamyardgrass; [15]): 0; Barnyardgrass plant response rating (0 to 10 scale, 0 is no effect, 10 is complete control) (bamyardgrass; [16]): 0; Barnyardgrass plant response rating (bamyardgrass; [17]): 0; Barnyardgrass plant response rating (bamyardgrass; [18]): 0 |
